In publication PMC6156138, “Combination of a Latency-Reversing Agent With a Smac Mimetic Minimizes Secondary HIV-1 Infection in vitro” (Frontiers in Microbiology, 2018):

Key:
Type in all cases: cell-based
HIV-1 NL4-3 = assay: Antiviral assay, HIV-1 NL4-3 in MT-4 cells; details: for antiviral effect when combined with EFdA: HIV-1 NL4-3 in MT-4 cells; for replication of HIV-1 NL4-3 (supernatant p24): MT-4 cells, cultured for 12 days, single drug
Procedure: Antiviral assays using wild type HIV-1 (HIV-1 NL4-3) cells and MT-4 cells were conducted as previously described ([Maeda et al., 2014]; [Takamatsu et al., 2015]). To determine the cytotoxicity induced by LRAs and its related compounds, cells (5 × 10^5 cells/mL) were cultured in the presence or absence of LRA. After 24 h, cytotoxicity assays were performed using a Cytotoxicity LDH Assay Kit (Dojindo, Kumamoto, Japan) according to the manufacturer’s instructions. The number of living cells with the drug was measured and compared with those without the drug, and data are shown as percentage (%) of control.
Supplementary file Data_Sheet_1.PDF: FIGURE S1 The combined effect of an RT inhibitor (EFdA/MK-8591) ([Nakata et al., 2007]; [Kawamoto et al., 2008]; [Maeda et al., 2014]) and PKC activator (PEP005) on the replication of HIV-1 NL4-3 in MT-4 cells. MT-4 cells were infected with HIV-1 NL4-3 in the presence or absence of drug(s), cultured for 12 days, and the supernatant p24 levels were measured. Click here for additional data file.

ACH-2 cells = assay: FACS analysis of active caspase-3 expression; details: for percentage of active caspase-3 cells: ACH-2 cells, 24 h
Procedure: Intracellular HIV-1 p24 levels and active form of caspase-3 expression were determined as previously described ([Hattori et al., 2009]; [Duro et al., 2010]; [Matsuda et al., 2015]). In brief, ACH-2 cells or U1 cells (2.5 × 10^5 cells/mL) were fixed with 1% paraformaldehyde/phosphate buffered saline (PBS) for 20 min and were permeabilized with Flow Cytometry Perm Buffer (TONBO biosciences, San Diego, CA, United States). After incubation on ice for 5 min, the cells were stained with anti-HIV-1 p24 (24-4)-FITC mAb (Santa Cruz Biotechnology, Dallas, TX, United States) and/or with Alexa Fluor 647-conjugated anti-active caspase-3 mAb (C92-605) (BD Pharmingen, San Diego, CA, United States) for 30 min on ice. Cells were then analyzed on a BD FACSVerse flow cytometer (BD Biosciences, Franklin Lakes, NJ, United States). The corrected data were analyzed with FlowJo software (Tree Star, San Carlos, CA, United States).
FIGURE 3 (A,B) ACH-2 (A) and U1 cells (B) were treated with birinapant (50 nM), PEP005 (5 nM), birinapant plus PEP005, TNF-α (10 ng/ml), and intracellular expression of caspase-3 was examined after 24 h of incubation. The percentage of active caspase-3 cells was determined by comparison with unstimulated cells. (C) ACH-2 cells after 24 h of PEP005 (0∼50 nM) treatment with or without birinapant (50 nM) were separately analyzed in p24^+ and p24^- populations for caspase-3 expression.
FIGURE 4 (A) ACH-2 cells were exposed to birinapant (50 nM), PEP005 (5 nM), birinapant plus PEP005, TNF-α (10 ng/ml), or birinapant plus TNF-α treatment and were cultured for 5 days, and data (FACS analysis) were collected at days 1, 3, and 5. (B) Expression of active caspase-3 in p24^+/^- populations is shown. (C) Changes in the supernatant p24 antigen levels in the presence of drug(s) on days 1, 3, and 5. […]

[1] = test system: primary CD4+ T-cells from HIV-1-infected patients; assay: HIV-1 reactivation in primary CD4+ T-cells from HIV-1 patients (HIV-1 mRNA); details: primary CD4+ T-cells from HIV-1-infected patients under cART, 24 h; PEP005 5 nM, birinapant 50 nM
From the text: Peripheral blood samples were collected from HIV-1-infected patients who had been receiving combination antiretroviral therapy (cART) for at least 6 years. All subjects maintained lower viral load (<20 copies/ml) (except for occasional blips) during therapy. CD4^+ T-cell counts in peripheral blood samples ranged from 464–807 cells/mm^3 (average 601 cells/mm^3), and plasma viral loads were <41.3 copies/ml as measured by qPCR (Roche COBAS AmpliPrep/COBAS TaqMan HIV-1 Test version 2.0) at the time of study enrollment. Written informed consent was obtained from all the subjects. […] The total RNA was extracted, cDNA was synthesized, and quantitative real-time PCR analyses for studying the expression of intracellular HIV-1 RNA were carried out as shown above. The HIV RNA copies were calculated using a standard curve obtained from serially diluted HIV-1 plasmid, the normalized values [HIV RNA copies/input RNA (ng)] with a drug were compared with that without a drug, and the relative increase in HIV-1 RNA levels in the presence of a drug was determined.
FIGURE 5 (A) Changes in the HIV-1 mRNA expression on primary CD4^+ T-cells from HIV-1-infected patients in the presence of PEP005 and/or birinapant. […] Statistical significance was determined using Mann-Whitney U test, where P-value < 0.05 was considered to be significant.

[2] = birinapant 50 nM, PEP005 5 nM, TNF-α 10 ng/ml

Row | SMILES | antiviral effect when combined with EFdA (HIV-1 NL4-3) | replication of HIV-1 NL4-3 (supernatant p24) (HIV-1 NL4-3) | Active caspase-3 (ACH-2 cells; ACH-2, 24 h, p24 (+) cells, Birinapant (-), PEP005 50nM) [%] | Active caspase-3 (ACH-2 cells; ACH-2, 24 h, p24 (-) cells, Birinapant (-), PEP005 50nM) [%] | Active caspase-3 (ACH-2 cells; ACH-2, Day 5, p24 (+) cells, birinapant 50 nM, PEP005 5 nM, TNF-α 10 ng/ml) [%] | percentage of active caspase-3 cells (ACH-2 cells; [2]) [%] | HIV-1 mRNA expression [1]
1 | C/C=C(/C)C(=O)O[C@H]1C(C)=C[C@]23C(=O)[C@@H](C=C(CO)[C@@H](O)[C@]12O)[C@H]1[C@@H](C[C@H]3C)C1(C)C [PEP005, ingenol-3-angelate] | no additive/synergistic antiviral effect | little to no effect on viral replication | 13.0 | 44.7 | ~20.7 | 9.98 | elevated the expression of HIV-1 mRNA
2 | CC[C@H](NC(=O)[C@H](C)NC)C(=O)N1C[C@@H](O)C[C@H]1Cc1c(-c2[nH]c3cc(F)ccc3c2C[C@@H]2C[C@H](O)CN2C(=O)[C@H](CC)NC(=O)[C@H](C)NC)[nH]c2cc(F)ccc12 [Birinapant] | no additive/synergistic antiviral effect | little to no effect on viral replication |  |  |  | 2.96 | failed to change the HIV-1 mRNA expression in most samples
